Tests used:
[1] = test system: patients with alcohol withdrawal syndrome; experiment: Open, randomized, comparative clinical study of CDP-choline in alcohol withdrawal syndrome versus clomethiazole and vitamin B; format: in vivo, humans; conditions: CDP-choline 500 mg i.m. every 12 h for 30 days, then 200 mg p.o. every 8 h, plus conventional therapy; versus conventional therapy alone; 20 patients per group; at 30 days
Description: An open, randomized and comparative study on the conventional therapy of alcohol withdrawal syndrome was conducted in 40 patients. Patients were randomly distributed in two groups of 20. One of the groups was used as control and received clomethiazole and vitamin B1, B6 and B12. This treatment regimen was maintained for 8 days, and then patients were given diazepam until completion of treatment (60 days). The other group of patients received the same treatment regimen plus CDP-choline 500 mg i.m. every 12 h for the first 30 days and CDP-choline 200 mg p.o. every 8 h for the remaining 30 days.

[2] = test system: patients with alcohol withdrawal syndrome; experiment: Open clinical study of CDP-choline in alcohol withdrawal syndrome; format: in vivo, humans
Description: The progress of alcohol withdrawal syndrome was assessed in an open study conducted in 197 patients. CDP-choline was administered at doses of 500 mg/d i.m. or 600 mg/d p.o. for 60 days. […] At 60 days, 55.83% of patients had given up drinking alcohol and 31.97% of patients drank much less.

[3] = 197 patients, 500 mg/d i.m. or 600 mg/d p.o. for 60 days, at 60 days

C[N+](C)(C)CCOP(=O)(O)OP(=O)([O-])OC[C@H]1O[C@@H](n2ccc(N)nc2=O)[C@H](O)[C@@H]1O [CDP-choline, cytidine diphosphate choline]
tremor incidence (p<0.05), cramps (p<0.05), asthenia (p<0.05), emotional lability (p<0.01), nervousness (p<0.05) and social withdrawal (p<0.05) [1]: significant differences versus control | anxiety, tremor, disorientation, insomnia, dysarthria, tendency to suicide and neuritic pains ([2]; 500 mg/d i.m. or 600 mg/d p.o. for 60 days): significant improvement | patients who drank much less [2, 3]: 31.97% | patients who had given up drinking alcohol [2, 3]: 55.83% | assessments of progress of alcohol withdrawal syndrome ([2]; at 30 and 60 days following treatment, p<0.001): significant differences

From patent US6894032B2, “Use of CDP-choline for the treatment of alcohol withdrawal syndrome” (Ferrer Internacional, S.A., priority 2000, dated 2005)
